Assay results: patent publication US20200079766A1, “MONOCYCLIC OGA INHIBITOR COMPOUNDS” (Janssen Pharmaceutica NV, priority 2016, published 2020)
Where two headings read alike, the source gives them in different places.

How the values were obtained:
[1] = tested on: OGA in HEK293 cells inducible for P301L mutant human Tau (isoform 2N4R); test: OGA cellular assay: immunocytochemical detection of O-GlcNAcylated proteins (CTD110.6 antibody) after 6 h incubation; format: cell-based; details: for Emax / EC50: Homo sapiens, HEK293, 6 h; for EC50: read-out: Cellular hOGA, pEC50 (converted)
Description: HEK293 cells inducible for P301L mutant human Tau (isoform 2N4R) were established at Janssen. Thiamet-G was used for both plate validation (high control) and as reference compound (reference EC50 assay validation). OGA inhibition is evaluated through the immunocytochemical (ICC) detection of O-GlcNAcylated proteins by the use of a monoclonal antibody (CTD110.6; Cell Signaling, #9875) detecting O-GlcNAcylated residues as previoulsy described (Dorfmueller et al. 2010 Chemistry & biology, 17:1250). Inhibition of OGA will result in an increase of O-GlcNAcylated protein levels resulting in an increased signal in the experiment. Cell nuclei are stained with Hoechst to give a cell culture quality control and a rough estimate of immediate compounds toxicity, if any. ICC pictures are imaged with a Perkin Elmer Opera Phenix plate microscope and quantified with the provided software Perkin Elmer Harmony 4.1.
Cells were propagated in DMEM high Glucose (Sigma, # D5796) following standard procedures. 2 days before the cell assay cells are split, counted and seeded in Poly-D-Lysine (PDL) coated 96-wells (Greiner, #655946) plate at a cell density of 12,000 cells per cm^2 (4,000 cells per well) in 100 μl of Assay Medium (Low Glucose medium is used to reduce basal levels of GlcNAcylation) (Park et al. 2014 The Journal of biological chemistry 289:13519). At the day of compound test medium from assay plates was removed and replenished with 90 μl of fresh Assay Medium. 10 μl of compounds at a 10 fold final concentration were added to the wells. Plates were centrifuged shortly before incubation in the cell incubator for 6 hours. DMSO concentration was set to 0.2%. Medium is discarded by applying vacuum. For staining of cells medium was removed and cells washed once with 100 μl D-PBS (Sigma, # D8537). From next step onwards unless other stated assay volume was always 50 μl and incubation was performed without agitation and at room temperature. Cells were fixed in 50 μl of a 4% paraformaldehyde (PFA, Alpha aesar, #043368) PBS solution for 15 minutes at room temperature. […] Before analysis samples were washed 2 times manually for 5 minutes in ICC base buffer.
Imaging is performed using Perkin Elmer Phenix Opera using a water 20× objective and recording 9 fields per well. Intensity readout at 488 nm is used as a measure of O-GlcNAcylation level of total proteins in wells. To assess potential toxicity of compounds nuclei were counted using the Hoechst staining. IC50-values are calculated using parametric non-linear regression model fitting. As a maximum inhibition Thiamet G at a 200 uM concentration is present on each plate. In addition, a concentration response of Thiamet G is calculated on each plate.

[2] = biological target: T1, recombinant human Meningioma Expressed Antigen 5 (MGEA5), also referred to as O-GlcNAcase (OGA) (Homo sapiens, UniProt O60502); test: OGA biochemical assay: inhibition of FM-GlcNAc hydrolysis, fluorescence; protocol A (10 nM OGA, 1 h) or protocol B (2 nM OGA, 6 h); details: for IC50: read-out: Enzymatic hOGA, pIC50 (converted)
T1 construct: Full length OGA enzyme was purchased at OriGene (cat # TP322411); purchased OriGene TP322411
T1 sequence (O60502 1-916): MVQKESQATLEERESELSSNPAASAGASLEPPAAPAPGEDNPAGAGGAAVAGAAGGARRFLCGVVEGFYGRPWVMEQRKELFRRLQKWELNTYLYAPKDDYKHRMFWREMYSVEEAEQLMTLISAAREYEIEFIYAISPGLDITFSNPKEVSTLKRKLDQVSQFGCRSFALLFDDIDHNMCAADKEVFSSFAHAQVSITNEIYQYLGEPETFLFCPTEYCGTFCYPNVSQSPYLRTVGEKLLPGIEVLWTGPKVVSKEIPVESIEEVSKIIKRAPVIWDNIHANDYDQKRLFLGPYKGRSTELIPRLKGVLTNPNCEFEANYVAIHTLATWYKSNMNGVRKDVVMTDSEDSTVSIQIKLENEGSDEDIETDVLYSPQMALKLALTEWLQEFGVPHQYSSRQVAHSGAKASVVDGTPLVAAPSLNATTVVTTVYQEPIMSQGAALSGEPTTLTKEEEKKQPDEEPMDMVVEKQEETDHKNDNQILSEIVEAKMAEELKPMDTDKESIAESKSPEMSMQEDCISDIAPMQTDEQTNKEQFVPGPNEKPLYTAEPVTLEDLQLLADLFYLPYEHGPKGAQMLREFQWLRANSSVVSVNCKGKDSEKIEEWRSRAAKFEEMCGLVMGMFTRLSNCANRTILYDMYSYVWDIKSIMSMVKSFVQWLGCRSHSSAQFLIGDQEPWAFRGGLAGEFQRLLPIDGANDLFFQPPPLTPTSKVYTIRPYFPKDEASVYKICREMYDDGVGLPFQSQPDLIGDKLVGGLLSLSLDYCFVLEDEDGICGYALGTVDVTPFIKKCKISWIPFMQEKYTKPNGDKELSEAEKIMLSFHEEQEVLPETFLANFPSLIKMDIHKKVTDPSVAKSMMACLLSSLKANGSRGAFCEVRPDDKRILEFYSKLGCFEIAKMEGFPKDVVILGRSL
Outline: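 Full-length human OGA in 200 mM citrate/phosphate pH 7.2 with 0.005% Tween-20, compound pre-incubated 60 min at RT, then 100 uM FM-GlcNAc (final); 10 nM enzyme for 1 h or 2 nM for 6 h at RT. Stopped with pH 11.0 carbonate; fluorescein read at ex 485/em 538 nm. IC50 and Hill coefficient from curve fit.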

[3] = Enzymatic protocol A (10 nM OGA, 1 h)
[4] = Enzymatic protocol B (2 nM OGA, 6 h)

Compound	Emax ([1]; maximum = Thiamet G 200 uM) [%]	EC50 [1] [nM]	Emax [2, 3] [%]	IC50 [2, 3] [nM]	Emax [2, 4] [%]	IC50 [2, 4] [nM]	Cellular hOGA; pEC50 [1]	Cellular Emax (%) ([1]; maximum = Thiamet G 200 uM)	Enzymatic Emax (%) [2, 4] [%]	Enzymatic hOGA; pIC50 [2, 4]
CC(=O)Nc1ncc(CN2CCCC(Oc3cc(C)nc(C)c3)C2)s1 (stereo not drawn) [compound 14]	118	112	100	8.13	101	9.12	–	–	–	–
CC(=O)Nc1ncc(CN2CCC[C@@H](Oc3cc(C)nc(C)c3)C2)s1 [compound 15]	98.4	1230	–	–	102	8.51	–	–	–	–
CC(=O)Nc1ncc(CN2CCC[C@H](Oc3cc(C)nc(C)c3)C2)s1 [compound 16]	115	63.1	–	–	101	70.8	–	–	–	–
Cc1cc(O[C@@H]2CCCN(Cc3ccc4nccnc4c3)C2)cc(C)n1 [compound 18]	12.4	> 10000	–	–	97.9	417	–	–	–	–
CC(=O)Nc1ncc(CN2CCCC(COc3cc(C)nc(C)c3)C2)s1 (stereo not drawn) [compound 20]	111	6.31	–	–	101	6.76	–	–	–	–
CC(=O)Nc1ncc(CN2CCCC(Cc3cc(C)nc(C)n3)C2)s1 (stereo not drawn) [compound 24]	111	32.4	–	–	101	5.5	–	–	–	–
CC(=O)Nc1ncc(CN2CCCC(Cc3cc(C)nc(C)c3)C2)s1 (stereo not drawn) [compound 27]	118	5.25	–	–	99.6	2.45	–	–	–	–
CC(=O)Nc1ncc(CN2CCC[C@H](Cc3cc(C)nc(C)c3)C2)s1 [compound 28]	106	4.47	–	–	102	1.05	–	–	–	–
CC(=O)Nc1ncc(CN2CCC[C@@H](Cc3cc(C)nc(C)c3)C2)s1 [compound 29]	108	56.2	–	–	102	8.71	–	–	–	–
CC(=O)Nc1ncc(CN2CCC(Cc3cc(C)nc(C)c3)C2)s1 (stereo not drawn) [compound 30]	99.2	13.2	–	–	124	4.68	–	–	–	–
CC(=O)Nc1ncc(CN2CCCC(Nc3cc(C)nc(C)c3)C2)s1 (stereo not drawn) [compound 31]	90.2	20	–	–	102	3.24	–	–	–	–
CC(=O)Nc1ncc(S(=O)(=O)N2CCC[C@H](Cc3cc(C)nc(C)c3)C2)s1 [compound 33]	33.8	> 1000	–	–	99.9	72.4	–	–	–	–
CC(=O)Nc1ncc(CN2CC[C@@H](Cc3ncc(C)cc3C(F)(F)F)C2)s1 [compound 35]	91.9	77.6	–	–	101	12.6	–	–	–	–
CC(=O)Nc1ncc(CN2CC[C@H](Cc3cnc(C)c(C)c3)C2)s1 [compound 37]	87.8	18.2	–	–	99.1	3.09	–	–	–	–
CCOc1cc(C[C@H]2CCN(Cc3cnc(NC(C)=O)s3)C2)cc(C)n1 [compound 41]	90.7	20.9	–	–	99.6	8.51	–	–	–	–
CC(=O)Nc1ncc(CN2CC[C@H](Cc3ncccc3C#N)C2)s1 [compound 45]	80.1	219	–	–	101	26.9	–	–	–	–
CC(=O)Nc1ncc(CN2CC[C@H](Cc3ccc(C#N)cn3)C2)s1 [compound 46]	85.9	47.9	–	–	101	21.9	–	–	–	–
CC(=O)Nc1ncc(CN2CC[C@H](Cc3nnc(C)cc3C)C2)s1 [compound 47]	61.6	288	–	–	96.9	40.7	–	–	–	–
COc1cnc(C[C@H]2CCN(Cc3cnc(NC(C)=O)s3)C2)c(F)c1 [compound 48]	83	66.1	–	–	100	12	–	–	–	–
CC(=O)Nc1ncc(CN2CC[C@H](Cc3ccc(OC(F)(F)F)cn3)C2)s1 [compound 49]	89.6	85.1	–	–	97.9	105	–	–	–	–
CC(=O)Nc1ncc(CN2CC[C@H](Cc3ccc(C(F)F)cn3)C2)s1 [compound 50]	87.4	55	–	–	99.4	77.6	–	–	–	–
CC(=O)Nc1ncc(CN2CC[C@H](Cc3cc(C(F)(F)F)cnc3C)C2)s1 [compound 51]	93.5	123	–	–	98.3	53.7	–	–	–	–
CC(=O)Nc1ncc(CN2CC[C@H](Cc3cc(C)c(F)cn3)C2)s1 [compound 52]	95.4	91.2	–	–	100	14.8	–	–	–	–
CC(=O)Nc1ncc(CN2CCC(Cc3cc(C(F)(F)F)ccn3)C2)s1 (stereo not drawn) [compound 53]	–	–	–	–	–	–	6.76	85.6	99.4	7.05
CC(=O)Nc1ncc(CN2CC[C@H](Cc3nc(C)ccc3C(F)(F)F)C2)s1 [compound 54]	75.9	234	–	–	100	28.8	–	–	–	–
